In patent US11591323B2, “Muscarinic agonists as non-steroidal and non-opioid analgesics and methods of use thereof” (Barry University, priority 2019, dated 2023):
Where two headings read alike, the source gives them in different places.

How the values were obtained:
Parameters in all cases: host or cells: CHO cells, stably transfected
M4 muscarinic receptor = target: T1, M4 muscarinic receptor (Homo sapiens, UniProt P08173); assay: inhibition of forskolin-stimulated cAMP, M4 CHO cells (M4Gi); type: cell-based; details: for Kd: read-out: pKA (converted); for EC50: read-out: pEC50 (converted)
T1 sequence (P08173 1-479): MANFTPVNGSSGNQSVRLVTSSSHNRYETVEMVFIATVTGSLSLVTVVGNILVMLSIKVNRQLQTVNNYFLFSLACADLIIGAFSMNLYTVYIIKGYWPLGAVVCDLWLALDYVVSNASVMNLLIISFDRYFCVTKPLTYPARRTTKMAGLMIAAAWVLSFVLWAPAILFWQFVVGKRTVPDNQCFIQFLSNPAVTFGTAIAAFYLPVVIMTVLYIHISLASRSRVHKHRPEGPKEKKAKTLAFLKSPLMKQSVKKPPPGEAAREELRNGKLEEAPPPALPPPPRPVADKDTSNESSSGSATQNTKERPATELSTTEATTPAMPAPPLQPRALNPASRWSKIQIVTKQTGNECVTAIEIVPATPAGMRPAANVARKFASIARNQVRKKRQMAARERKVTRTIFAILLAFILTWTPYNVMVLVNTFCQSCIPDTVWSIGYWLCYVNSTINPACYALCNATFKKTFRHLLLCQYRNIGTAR

M3 muscarinic receptor [1] = target: T2, M3 muscarinic receptor (Homo sapiens, UniProt P20309); assay: [3H]NMS competition binding, M3 CHO membranes; details: competition with 1 nM [3H]NMS; read-out: Inhibition constants (Ki) as negative logarithms, M3 (converted)
T2 sequence (P20309 whole entry): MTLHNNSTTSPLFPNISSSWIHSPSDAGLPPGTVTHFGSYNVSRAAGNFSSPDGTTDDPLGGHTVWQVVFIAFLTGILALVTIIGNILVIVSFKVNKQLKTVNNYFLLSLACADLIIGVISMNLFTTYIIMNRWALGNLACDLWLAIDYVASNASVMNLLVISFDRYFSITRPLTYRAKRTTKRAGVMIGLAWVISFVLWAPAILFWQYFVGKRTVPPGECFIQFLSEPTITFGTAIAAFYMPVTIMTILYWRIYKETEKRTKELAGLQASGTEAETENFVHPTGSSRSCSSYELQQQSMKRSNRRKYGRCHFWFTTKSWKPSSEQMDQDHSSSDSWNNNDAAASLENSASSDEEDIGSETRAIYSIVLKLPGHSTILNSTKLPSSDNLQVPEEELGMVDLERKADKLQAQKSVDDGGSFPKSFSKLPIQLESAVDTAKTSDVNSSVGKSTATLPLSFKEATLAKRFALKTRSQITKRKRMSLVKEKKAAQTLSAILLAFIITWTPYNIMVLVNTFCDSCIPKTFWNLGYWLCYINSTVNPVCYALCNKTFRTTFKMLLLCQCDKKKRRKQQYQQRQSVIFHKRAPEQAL

M2 muscarinic receptor = target: T3, M2 muscarinic receptor (Homo sapiens, UniProt P08172); assay: inhibition of forskolin-stimulated cAMP, M2 CHO cells (M2Gi); type: cell-based
T3 sequence (P08172 1-466): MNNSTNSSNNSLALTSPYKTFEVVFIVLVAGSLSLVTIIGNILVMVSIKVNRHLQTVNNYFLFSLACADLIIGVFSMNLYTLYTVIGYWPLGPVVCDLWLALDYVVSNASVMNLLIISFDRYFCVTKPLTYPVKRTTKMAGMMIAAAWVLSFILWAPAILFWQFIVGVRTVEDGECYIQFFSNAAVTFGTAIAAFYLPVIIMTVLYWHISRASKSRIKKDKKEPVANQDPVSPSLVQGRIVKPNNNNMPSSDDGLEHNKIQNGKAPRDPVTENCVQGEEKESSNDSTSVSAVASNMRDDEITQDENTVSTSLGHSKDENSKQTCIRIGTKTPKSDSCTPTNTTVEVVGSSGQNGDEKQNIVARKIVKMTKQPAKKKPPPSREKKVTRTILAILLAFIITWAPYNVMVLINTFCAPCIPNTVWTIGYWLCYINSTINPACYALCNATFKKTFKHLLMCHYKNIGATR

M3 muscarinic receptor [2] = target: T2, M3 muscarinic receptor; assay: accumulation of IPX, M3 CHO cells (M3Gq); type: cell-based; details: for Kd: read-out: pKA (converted); for EC50: read-out: pEC50 (converted)
M5 muscarinic receptor = target: T4, M5 muscarinic receptor (Homo sapiens, UniProt P08912); assay: accumulation of IPX, M5 CHO cells (M5Gq); type: cell-based; details: for EC50: read-out: pEC50 (converted)
T4 sequence (P08912 1-532): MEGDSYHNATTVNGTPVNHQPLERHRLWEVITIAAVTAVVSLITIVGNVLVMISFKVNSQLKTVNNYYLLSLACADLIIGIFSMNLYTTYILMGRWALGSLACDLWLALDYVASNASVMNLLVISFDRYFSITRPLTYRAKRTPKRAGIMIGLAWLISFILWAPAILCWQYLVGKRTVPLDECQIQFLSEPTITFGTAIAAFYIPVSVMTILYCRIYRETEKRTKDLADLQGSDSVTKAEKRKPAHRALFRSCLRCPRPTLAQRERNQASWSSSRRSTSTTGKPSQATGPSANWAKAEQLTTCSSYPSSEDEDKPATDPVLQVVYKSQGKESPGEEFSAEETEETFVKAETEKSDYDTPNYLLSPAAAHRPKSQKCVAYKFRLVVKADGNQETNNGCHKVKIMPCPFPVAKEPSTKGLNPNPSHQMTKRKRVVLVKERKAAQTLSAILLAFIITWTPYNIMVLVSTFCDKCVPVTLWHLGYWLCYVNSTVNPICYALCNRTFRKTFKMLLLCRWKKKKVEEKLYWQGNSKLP

M1 muscarinic receptor = target: T5, M1 muscarinic receptor (Homo sapiens, UniProt P11229); assay: accumulation of inositol phosphates IPX, M1 CHO cells (M1Gq); type: cell-based
T5 sequence (P11229 1-460): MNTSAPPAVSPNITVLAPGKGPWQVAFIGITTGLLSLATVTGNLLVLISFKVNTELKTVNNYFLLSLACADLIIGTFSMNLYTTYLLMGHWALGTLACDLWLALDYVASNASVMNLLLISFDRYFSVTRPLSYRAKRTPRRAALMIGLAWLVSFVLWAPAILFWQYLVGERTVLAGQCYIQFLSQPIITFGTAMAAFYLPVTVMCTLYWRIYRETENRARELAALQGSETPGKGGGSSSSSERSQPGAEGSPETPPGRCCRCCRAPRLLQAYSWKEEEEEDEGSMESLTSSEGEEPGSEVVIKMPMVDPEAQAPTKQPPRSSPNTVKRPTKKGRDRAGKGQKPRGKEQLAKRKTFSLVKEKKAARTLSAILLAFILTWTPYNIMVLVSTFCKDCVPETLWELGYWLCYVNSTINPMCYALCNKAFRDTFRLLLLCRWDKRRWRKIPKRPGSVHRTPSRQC

[3] = M4 (↓cAMP), preferential response, Table 7, operational efficacy
[4] = M4 (↓cAMP), preferential response, Table 7
[5] = M4 (↓cAMP), preferential response, to carbachol, Tables 2, 3, 7
[6] = M4Gi (↓cAMP), Table 8, to carbachol
[7] = M2Gi (↓cAMP), Table 8, to carbachol
[8] = M3 (↑IPX), preferential response, Table 7
[9] = M5 (↑IPX), preferential response, Table 7

With `C1=CCN(Cc2cccs2)CC1.Cl` [Compound 6A, 1-[(thiophen-2-yl)methyl]-1,2,3,6-tetrahydropyridin-1-ium chloride] the Emax (M4 muscarinic receptor; CHO, M4 (↓cAMP), preferential response, Table 7, read-out: E′MAX) was 25 ± 2%, the τ (M4 muscarinic receptor; [3]) was 0.39 ± 0.04 and the Kd (M4 muscarinic receptor; M4 (↓cAMP), preferential response, Table 7, operational model) was 6.31 µM. For the same compound, the EC50 (M4 muscarinic receptor; [4]) was 4.27 µM, the RAi (M4 muscarinic receptor; M4 (↓cAMP), preferential response, relative to carbachol, Tables 2, 3, 7) was 0.0046 ± 0.0004 and the “Δlog(τ/KA)” value (M4 muscarinic receptor; [5]) was 2.15 ± 0.16. For the same compound, the “E′MAX” value (M4 muscarinic receptor; M4Gi (↓cAMP), Table 8) was 25 ± 2 % inhibition, the τ (M4 muscarinic receptor; M4Gi (↓cAMP), Table 8) was 0.39 ± 0.04 and the RAi (M4 muscarinic receptor; M4Gi (↓cAMP), Table 8, relative to carbachol) was 0.0046 ± 0.0004. The “Δlog(τ/KA)” value (M4 muscarinic receptor; [6]) was 2.15 ± 0.16, the EC50 (M4 muscarinic receptor; M4Gi (↓cAMP), Table 8) was 8.51 µM and the Kd (M4 muscarinic receptor; M4Gi (↓cAMP), Table 8) was 12.6 µM. The Ki (M3 muscarinic receptor [1]) was 37.2 µM, the Emax (M2 muscarinic receptor; CHO, M2 (↓cAMP), preferential response, Table 7, read-out: E′MAX) was 50 ± 2% and the τ (M2 muscarinic receptor; M2 (↓cAMP), preferential response, Table 7, operational efficacy) was 1.32 ± 0.08. For the same compound, the Kd (M2 muscarinic receptor; M2 (↓cAMP), preferential response, Table 7, operational model, read-out: pKA (converted)) was 1580 nM, the EC50 (M2 muscarinic receptor; M2 (↓cAMP), preferential response, Table 7, read-out: pEC50 (converted)) was 724 nM and the “E′MAX” value (M2 muscarinic receptor; M2Gi (↓cAMP), Table 8) was 50 ± 2 % inhibition. For the same compound, the pEC50 (M2 muscarinic receptor; M2Gi (↓cAMP), Table 8) was 6.14 ± 0.05, the pKA (M2 muscarinic receptor; M2Gi (↓cAMP), Table 8) was 5.8 ± 0.1 and the τ (M2 muscarinic receptor; M2Gi (↓cAMP), Table 8) was 1.3 ± 0.1. The RAi (M2 muscarinic receptor; M2Gi (↓cAMP), Table 8, relative to carbachol) was 0.067 ± 0.007, the “Δlog(τ/KA)” value (M2 muscarinic receptor; [7]) was 1.22 ± 0.08 and the “E′MAX” value (M3 muscarinic receptor [2]; [8]) was 2.5 ± 0.2 fold over basal. It also gave a τ (M3 muscarinic receptor [2]; M3 (↑IPX), preferential response, Table 7, operational efficacy) of 0.06 ± 0.01, a Kd (M3 muscarinic receptor [2]; M3 (↑IPX), preferential response, Table 7, operational model) of 5.01 µM and an EC50 (M3 muscarinic receptor [2]; [8]) of 5.01 µM. The RAi (M3 muscarinic receptor [2]; M3 (↑IPX), preferential response, relative to carbachol, Tables 2, 3, 7) was 0.0058 ± 0.0005, the “Δlog(τ/KA)” value (M3 muscarinic receptor [2]; M3 (↑IPX), preferential response, to carbachol, Tables 2, 3, 7) was 2.23 ± 0.23 and the “E′MAX” value (M3 muscarinic receptor [2]; M3Gq (↑IPX), Table 8) was 2.4 ± 0.2 fold over basal. For the same compound, the τ (M3 muscarinic receptor [2]; M3Gq (↑IPX), Table 8) was 0.05 ± 0.01, the RAi (M3 muscarinic receptor [2]; M3Gq (↑IPX), Table 8, relative to carbachol) was 0.0056 ± 0.0008 and the “Δlog(τ/KA)” value (M3 muscarinic receptor [2]; M3Gq (↑IPX), Table 8, to carbachol) was 2.26 ± 0.48. The EC50 (M3 muscarinic receptor [2]; M3Gq (↑IPX), Table 8) was 5.01 µM, the Kd (M3 muscarinic receptor [2]; M3Gq (↑IPX), Table 8) was 5.01 µM and the “E′MAX” value (M5 muscarinic receptor; [9]) was 1.19 ± 0.04 fold over basal. The EC50 (M5 muscarinic receptor; [9]) was 1580 nM, the RAi (M5 muscarinic receptor; M5 (↑IPX), preferential response, relative to carbachol, Tables 2, 3, 7) was 0.0025 ± 0.0008 and the “E′MAX” value (M5 muscarinic receptor; M5Gq (↑IPX), Table 8) was 1.16 ± 0.04 fold over basal. For the same compound, the RAi (M5 muscarinic receptor; M5Gq (↑IPX), Table 8, relative to carbachol) was 0.0023 ± 0.0007, the EC50 (M5 muscarinic receptor; M5Gq (↑IPX), Table 8) was 1580 nM and the “E′MAX” value (M1 muscarinic receptor; M1 (↑IPX), preferential response, Table 7) was 2.0 ± 0.2 fold over basal. It also gave a τ (M1 muscarinic receptor; M1 (↑IPX), preferential response, Table 7, operational efficacy) of 0.03 ± 0.01, a Kd (M1 muscarinic receptor; M1 (↑IPX), preferential response, Table 7, operational model, read-out: pKA (converted)) of 7.94 µM and an EC50 (M1 muscarinic receptor; M1 (↑IPX), preferential response, Table 7, read-out: pEC50 (converted)) of 7.94 µM. For the same compound, the RAi (M1 muscarinic receptor; M1 (↑IPX), preferential response, relative to carbachol, Tables 2, 3, 7) was 0.0010 ± 0.0001, the “Δlog(τ/KA)” value (M1 muscarinic receptor; M1 (↑IPX), preferential response, to carbachol, Tables 2, 3, 7) was 2.98 ± 0.26 and the “E′MAX” value (M1 muscarinic receptor; M1Gq (↑IPX), Table 8) was 2.0 ± 0.2 fold increase. The pEC50 (M1 muscarinic receptor; M1Gq (↑IPX), Table 8) was 5.1 ± 0.1, the pKA (M1 muscarinic receptor; M1Gq (↑IPX), Table 8) was 5.1 ± 0.2 and the τ (M1 muscarinic receptor; M1Gq (↑IPX), Table 8) was 0.03 ± 0.01. The RAi (M1 muscarinic receptor; M1Gq (↑IPX), Table 8, relative to carbachol) was 0.0011 ± 0.0007 and the “Δlog(τ/KA)” value (M1 muscarinic receptor; M1Gq (↑IPX), Table 8, to carbachol) was 2.96 ± 0.86.

For `C[N+](C)(C)CCOC(N)=O` [carbachol, reference compound], the “E′MAX” value (M4 muscarinic receptor; [4]) was 55 ± 2 % inhibition, the τ (M4 muscarinic receptor; [3]) was 1.41 ± 0.08 and the “Δlog(τ/KA)” value (M4 muscarinic receptor; [5]) was 0. For the same compound, the “E′MAX” value (M4 muscarinic receptor; M4Gi (↓cAMP), Table 8) was 55 ± 2 % inhibition, the τ (M4 muscarinic receptor; M4Gi (↓cAMP), Table 8) was 1.4 ± 0.1 and the “Δlog(τ/KA)” value (M4 muscarinic receptor; [6]) was 0. For the same compound, the “E′MAX” value (M2 muscarinic receptor; M2 (↓cAMP), preferential response, Table 7) was 44 ± 1 % inhibition, the “Δlog(τ/KA)” value (M2 muscarinic receptor; M2 (↓cAMP), preferential response, to carbachol, Tables 2, 3, 7) was 0 and the “E′MAX” value (M2 muscarinic receptor; M2Gi (↓cAMP), Table 8) was 44 ± 1 % inhibition. For the same compound, the “Δlog(τ/KA)” value (M2 muscarinic receptor; [7]) was 0.
